From BindingDB's records for patent US20240132491 (Medshine Discovery, 2024) come the findings set out here.

This test concerns the target Programmed cell death 1 ligand/protein 1 (Homo sapiens, UniProt Q9NZQ7). The test can be described thus: PD-L1 Binding Assay. As to the method:
Experimental Materials:PD1:PD-L1 TR-FRET assay kit, purchased from BPS Biosciences. Nivo multimode microplate reader (PerkinElmer)Experimental Method:PD1-Eu, dye-labeled acceptor, PD-L1-biotin, and compound to be tested were all diluted using the buffer in the kit.The compound to be tested was diluted 5-fold to the 8th concentration, i.e., from 4 μM to 0.05 nM, and the DMSO concentration was 4%. The experiment was set up in duplicate wells. 5 μL of each concentration gradient of the compound to be tested was added to a microtiter plate, wherein 5 μL of a buffer containing 4% DMSO and 5 μL of PD-L1-biotin (60 nM) was added to the Max signal well, and only 5 μL of buffer was added to the Min signal well. The plate was incubated at 25° C. for 20 minutes. After the incubation, 5 μL of diluted PD1-Eu (10 nM) and 5 μL of diluted dye-labeled acceptor were added to each well. The system was reacted at 25° C. for 90 minutes. After the reaction, the multimode microplate reader was used to read the time-resolved fluorescence analysis signal.

Programmed cell death 1 ligand/protein 1, sequence (Q9NZQ7 whole entry): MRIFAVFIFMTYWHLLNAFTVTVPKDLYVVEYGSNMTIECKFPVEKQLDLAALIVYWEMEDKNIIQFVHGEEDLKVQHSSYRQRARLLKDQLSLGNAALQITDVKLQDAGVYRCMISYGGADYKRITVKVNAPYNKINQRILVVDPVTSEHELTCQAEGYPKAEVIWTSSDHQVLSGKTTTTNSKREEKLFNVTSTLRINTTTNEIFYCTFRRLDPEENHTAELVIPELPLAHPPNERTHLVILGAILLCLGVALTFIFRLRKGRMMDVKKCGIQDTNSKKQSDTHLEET
Programmed cell death 1 ligand/protein 1, sequence (Q15116 whole entry, further chain): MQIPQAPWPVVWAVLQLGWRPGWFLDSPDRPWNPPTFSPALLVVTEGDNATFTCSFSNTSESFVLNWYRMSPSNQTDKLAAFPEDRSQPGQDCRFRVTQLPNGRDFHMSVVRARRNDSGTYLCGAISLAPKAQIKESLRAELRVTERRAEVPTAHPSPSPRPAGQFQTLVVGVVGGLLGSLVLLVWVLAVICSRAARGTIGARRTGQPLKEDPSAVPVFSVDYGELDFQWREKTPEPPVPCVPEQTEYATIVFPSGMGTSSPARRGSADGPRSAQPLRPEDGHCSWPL

In turn, `COc1nc(-c2cccc(-c3cccc4c3CCN4c3nccc4cc(CN5CC[C@@H](O)C5)cnc34)c2Cl)ccc1CNC[C@@H]1CCC(=O)N1` [US20240132491, Example 1] registered an IC50 of 1.95 nM.

In general, IC50 refers to the concentration that inhibits the measured activity by half. A higher IC50 goes with lower potency.
